Experimental data published in patent US20090186878A1, “CRYSTALLINE FORMS OF A FARNESYL DIBENZODIAZEPINONE” (THALLION PHARMACEUTICALS INC., priority 2006, published 2009).
≈ marks a conversion by molar mass, not a printed value.

How the values were obtained:
[1] = Solubility determination in water (HPLC-MS of saturated aqueous solutions); type: physicochemical; settings: for Solubility: in water, ambient temperature, after 24 hours, not at equilibrium, supernatant by HPLC-MS, LOD 10 ng/mL
Experimental: The drug solubility of a sample of each of crystal Form I and Form II and two samples of Form III (obtained from drying of Form I and Form II) was evaluated in water using an HPLC-MS method (High performance liquid chromatography apparatus coupled to a mass spectrometer). Saturated aqueous solutions of the crystals were stirred and kept at ambient temperature for 24 hours. Solutions were centrifuged at 3600 rpm and an aliquot of supernatant was analyzed by HPLC-MS.

[2] = Thermal treatment (annealing/drying) of crystals, check for decomposition; type: physicochemical; settings: heated at 60, 70, 80, 90 or 100° C. under air atmosphere; by 1H NMR, TGA, XRPD and solubility
Experimental: Crystal Form III was produced by annealing of either Form I or Form II crystals using a variety of temperatures and under various conditions such as air or inert atmosphere or under reduced pressure.
A sample of Compound 1 crystals of Form II (1 mg to 30 g) was dried for 6 hours in an oven at an isothermal 60° C. temperature under reduced pressure (1-4 Torr) using an Edwards RV8 pump (or in a vacuum oven). Sample was allowed to cool to room temperature and crystal Form III obtained was analyzed as described in Examples 3, 4, 5 and 6.
Annealing process was done above the temperature of solvent elimination. No degradation was observed up to 160° C. when crystals were annealed under nitrogen or under reduced pressure. Annealing was also shown to proceed slowly at temperatures as low as 50° C.
As an example, when temperatures of 60, 70 and 90° C. were used, subsequent DSC analysis gave melting points respectively of 185.5, 184.5 and 183.4° C., and a mass enthalpy respectively of 84.6, 66.8 and 64.9 J/g. A slight degradation (less than 4%) was observed (NMR and solubility) when a temperature of 120° C. was used (melting point of 174° C., mass enthalpy of 39.7 J/g) under air atmosphere.

| Structure (SMILES) | Solubility [1] | Decomposition on transformation to Form III [2] | Relative (thermodynamic) stability judged from solubility ([1]; from Table 3 water solubility) |
| --- | --- | --- | --- |
| CC(C)=CCC/C(C)=C/CC/C(C)=C/CN1C(=O)c2cccc(O)c2Nc2c(O)cc(O)cc21 [Form III (annealed Form II)] | <LOD* | – | – |
| CC(C)=CCC/C(C)=C/CC/C(C)=C/CN1C(=O)c2cccc(O)c2Nc2c(O)cc(O)cc21 [Form III] | – | – | clearly more stable than crystal Forms I and II |
| CC(C)=CCC/C(C)=C/CC/C(C)=C/CN1C(=O)c2cccc(O)c2Nc2c(O)cc(O)cc21 [Form III (annealed Form I)] | 0.65 µg/mL (≈ 1.41 µM) | – | – |

More lines, main results first:

| Solubility [1] | Decomposition on transformation to Form III [2] | Structure (SMILES) | Relative (thermodynamic) stability judged from solubility ([1]; from Table 3 water solubility) |
| --- | --- | --- | --- |
| 6.59 µg/mL (≈ 14.2 µM) | without observable decomposition | CC(C)=CCC/C(C)=C/CC/C(C)=C/CN1C(=O)c2cccc(O)c2Nc2c(O)cc(O)cc21 [Form I (MeOH/water)] | – |
| 3.98 µg/mL (≈ 8.6 µM) | without observable decomposition | CC(C)=CCC/C(C)=C/CC/C(C)=C/CN1C(=O)c2cccc(O)c2Nc2c(O)cc(O)cc21 [Form II (EtOH/water)] | – |
